The test system of experiment [1] is NR6/HER cells. Format: cell-based, mouse. Here is the method: NR6 and NR6/HER cells (NR6 mouse fibroblasts transfected with human EGF-R expression plasmid) and HN5 squamous carcinoma cells (see Cowley, G. P. et al, Br. J. Cancer 1986, 53, 2230229) were routinely cultured in Dulbecco's Modified Eagles Medium (DMEM) containing 10% foetal bovine serum (FBS), 2 mM glutamine, non-essential amino acids, 10 U/ml penicillin and 10 μg/ml streptomycin at 37° C. in a humidified atmosphere of air containing 5% CO2. G418 (100 μg/ml) was also included in the NR6/HER growth medium as selection for EGF Receptor encoding transformants.
(§1) The ability of the Example 1 peptide to induce DNA synthesis in confluent and quiescent cells was assayed as described in Davies, D. E. et al, Br. J. Cancer 1994, 70, 263-269 but using NR6/HER or NR6 cells in place of human foreskin fibroplasts.

For experiment [2], the system named is NR6/HER cells. The experiment can be described thus: Effect of peptide on the mitogenic response induced by TGFA. The experiment is classed as cell-based, mouse. Here is the method: as §1
Experiment [3] addresses T1, EGF Receptor (Homo sapiens, UniProt P00533).
T1 construct: endogenous in cells; host or cells: HN5 squamous carcinoma cells
Nature of the experiment: EGF Receptor Tyr phosphorylation assay in HN5 cells (Western blotting). The experiment is classed as cell-based. Conditions: 10 minutes at room temperature. Here is the method:
EGF Receptor Tyr phosphorylation assays were performed using HN5 cells at approximately 50% confluence in 96-well plates. Cells were plated in 10% FBS/DMEM and allowed to adhere overnight. Medium was removed and wells washed twice with DMEM. The peptide was diluted in DMEM and added in 50 μl volume and cells incubated for 10 minutes at room temperature. At the end of incubation, reagents were removed and the cells washed once with 50 μl/well buffered saline and then rapidly solubilised with 50 μl/well×1 sample buffer containing phosphatase and protease inhibitors (1 mM NaF, 1 mM Na3 VO4, 100 μM PMSF). Enhanced phosphorylation of the 170 kDa EGF-R was determined by Western Blotting after SDS polyacrylamide gel electrophoresis as in Holt, S. J. et al, Biochem. Pharmacol. 1994, 47, 117-126.

In experiment [4] the test system is NR6 cells. The experiment can be described thus: Mitogenic activity on parental NR6 cell line which lacks EGF-R. The experiment is classed as cell-based, mouse. The settings on record: doses maximally stimulating for NR6/HER cells; FIG. 3.
In experiment [5] the target is human EGF Receptor on NR6/HER cells (NR6 mouse fibroblasts transfected with human EGF-R expression plasmid) (human, UniProt P00533). Nature of the experiment: cell-based or functional assay.

Numbered stars: 1 amine (or outer) side, 2 acyl side, 3 side chain; on linkers, the order of the positions; unused ones are H or OH. Bridge positions count the residues as written; N and C are the ends. Square brackets hold non-standard residues; d marks the D form. Ends that are not written are not given here. Peptide text beside a SMILES is read from it. DABHC = 2-azabicyclo[2,2,1]heptane-3-carboxylic acid, D-form (1R,3R,4S), O=C([C@H]1[C@H]2CC[C@H](C2)N1[*:1])[*:2]; X2 = O=C([C@@H]1[C@@H]2CC[C@@H](C2)N1[*:1])[*:2]; X1 = O=C([C@H]1[C@H]2CC[C@H](C2)N1[*:1])[*:2]; LABHC = not defined here

T1 sequence (P00533 25-1210): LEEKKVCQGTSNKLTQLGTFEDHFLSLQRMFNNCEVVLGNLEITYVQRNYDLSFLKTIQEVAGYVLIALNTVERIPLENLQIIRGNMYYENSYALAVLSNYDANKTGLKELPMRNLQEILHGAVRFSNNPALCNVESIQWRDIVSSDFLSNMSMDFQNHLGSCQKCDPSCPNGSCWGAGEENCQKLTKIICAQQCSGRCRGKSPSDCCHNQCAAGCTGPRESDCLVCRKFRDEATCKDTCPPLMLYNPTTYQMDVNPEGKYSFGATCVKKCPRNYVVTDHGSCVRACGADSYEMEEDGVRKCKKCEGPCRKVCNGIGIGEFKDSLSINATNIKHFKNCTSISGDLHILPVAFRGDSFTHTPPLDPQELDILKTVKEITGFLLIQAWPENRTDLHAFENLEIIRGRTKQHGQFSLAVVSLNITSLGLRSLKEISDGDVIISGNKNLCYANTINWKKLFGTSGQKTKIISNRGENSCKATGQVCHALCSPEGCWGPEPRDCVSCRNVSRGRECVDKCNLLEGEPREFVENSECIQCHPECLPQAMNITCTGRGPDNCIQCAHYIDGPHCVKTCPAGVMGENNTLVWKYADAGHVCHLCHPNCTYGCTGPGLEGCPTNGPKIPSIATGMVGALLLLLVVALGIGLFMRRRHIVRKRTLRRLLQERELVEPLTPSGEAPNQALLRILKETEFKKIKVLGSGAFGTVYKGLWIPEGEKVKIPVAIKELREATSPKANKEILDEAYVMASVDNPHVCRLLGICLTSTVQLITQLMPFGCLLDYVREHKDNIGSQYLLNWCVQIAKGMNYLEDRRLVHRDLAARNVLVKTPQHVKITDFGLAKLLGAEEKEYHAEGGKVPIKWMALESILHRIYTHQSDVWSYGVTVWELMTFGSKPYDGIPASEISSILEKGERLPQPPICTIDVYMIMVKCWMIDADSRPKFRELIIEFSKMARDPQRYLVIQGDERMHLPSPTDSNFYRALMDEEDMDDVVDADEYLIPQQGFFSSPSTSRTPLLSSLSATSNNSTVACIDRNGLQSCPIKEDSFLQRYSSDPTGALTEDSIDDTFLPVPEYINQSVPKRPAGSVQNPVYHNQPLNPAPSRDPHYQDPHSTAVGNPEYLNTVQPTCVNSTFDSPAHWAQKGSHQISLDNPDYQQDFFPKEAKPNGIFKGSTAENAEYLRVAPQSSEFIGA

`CC(C)C[C@@H]1NC(=O)[C@H](Cc2ccccc2)NC(=O)[C@H](CCCNC(=N)N)NC(=O)[C@@H](NC(=O)[C@@H](N)Cc2ccccc2)CSSC[C@@H](C(=O)O)NC(=O)[C@H](C)NC(=O)[C@@H]2[C@@H]3CC[C@@H](C3)N2C(=O)[C@H](CCCCN)NC(=O)[C@H](CC(=O)O)NC(=O)[C@H](CCC(=O)O)NC(=O)[C@H](CCC(N)=O)NC(=O)[C@H](C(C)C)NC1=O` [peptide incorporating LABHC] (H-FCRFLVQEDK[X2]AC-OH; disulfide 2-13; N-terminus assumed): in experiment [1], the EC50 came out at 330 µM. For the same molecule, the “effect on mitogenic response at maximal doses of TGFA” value in experiment [2] (maximal doses of TGFA, FIG. 2(b)) is “Similar, but less pronounced”. In experiment [2] (suboptimal doses of TGFA, FIG. 2(a)), the “effect on mitogenic response at suboptimal doses of TGFA” value is given as “Similar, but less pronounced”. In experiment [3], the “EGF Receptor phosphorylation” value is on record as “Neither the Example 1 peptide nor the corresponding peptide incorporating LABHC appeared to lead to increased EGF Receptor phosphorylation”.

`CC(C)C[C@@H]1NC(=O)[C@H](Cc2ccccc2)NC(=O)[C@H](CCCNC(=N)N)NC(=O)[C@@H](NC(=O)[C@@H](N)Cc2ccccc2)CSSC[C@@H](C(=O)O)NC(=O)[C@H](C)NC(=O)[C@H]2[C@H]3CC[C@H](C3)N2C(=O)[C@H](CCCCN)NC(=O)[C@H](CC(=O)O)NC(=O)[C@H](CCC(=O)O)NC(=O)[C@H](CCC(N)=O)NC(=O)[C@H](C(C)C)NC1=O` [Example 1 peptide] (H-FCRFLVQEDK[X1]AC-OH; disulfide 2-13) gave an EC50 in experiment [1] of 130 µM.

On to PDGF, for which the “mitogenic response of NR6 cells (EGF-R negative)” value in experiment [4] is “responsiveness of the cells to a mitogenic stimulus was confirmed”.

FCRFLVQEDK[LABHC]AC (disulfide 2-13; reading uncertain): the “DNA synthesis (mitogenic activity), EC50” value in experiment [5] worked out at 330 µM.

For FCRFLVQEDK[DABHC]AC (disulfide 2-13), the “DNA synthesis (mitogenic activity), EC50” value in experiment [5] came to 130 µM.

For the origin of these results see patent US5969099A, “Growth factor analogs” (The Secretary of State for Defence, priority 1995, dated 1999).
